What was measured:
corn (variety: Pioneer) [1] = experiment: Phytotoxicity Test Example 1: compositions dripped into the whorl of corn plants, plant length; format: in vivo; conditions: 10,000 ppm
Description: Liquid compositions comprising 10,000 ppm of mefentrifluconazole, 1.25 or 10% by volume of an oil adjuvant and water (hereinafter referred to as Present Composition 7 and Present Composition 8) were prepared by diluting mefentrifluconazole SC and an oil adjuvant (COC: Agri-Dex, containing 82% of heavy range paraffinic oil, 17% of surfactant, and 1% of other components, manufactured by Helena), respectively, with water and mixing them. Similarly to the Present Composition 7 and 8, liquid compositions (hereinafter referred to as Present Composition 9 and Present Composition 10) were prepared by replacing Agri-Dex with Sundance II (MSO, containing 90% of methylated seed oil and 10% of alkyl and aryl alkoxylates and phosphate esters). […]
A soil was filled into a plastic pot, and corn (variety: Pioneer) was seeded therein, and grown in a greenhouse for 4 days. […] After dripping, the plants were placed in the greenhouse for 8 days, then the plant lengths were measured. […]
From the plant lengths in each of the treated plants and the non-treated plants, the relative length of the compositions was determined according to the following “Formula 2”. […]

corn (variety: Pioneer) [2] = experiment: Phytotoxicity Test Example 2: compositions sprayed onto corn plants, plant length; format: in vivo; conditions: 2,000 ppm
Description: A liquid composition comprising 2,000 ppm of mefentrifluconazole, 10% by volume of an oil adjuvant and water (hereinafter referred to as Present Composition 13) were prepared by diluting mefentrifluconazole SC and an oil adjuvant (COC: Agri-Dex, containing 82% of heavy range paraffinic oil, 17% of surfactant, and 1% of other components, manufactured by Helena) with water and mixing them. Similarly to the Present Composition 13, a liquid compositions (hereinafter referred to as Present Composition 14) were prepared by replacing Agri-Dex with Sundance II (MSO, containing 90% of methylated seed oil and 10% of alkyl and aryl alkoxylates and phosphate esters). Similarly to the Present Composition 13, a liquid composition (hereinafter referred to as Present Composition 15) were prepared by replacing Agri-Dex with Destiny (HSOC, containing 50% of methylated seed oil, 42% of sorbitan fatty acid esters and high fructose corn syrup, and 8% of other ingredients). […]
A soil was filled into a plastic pot, and corn (variety: Pioneer) was seeded therein, and grown in a greenhouse for 4 days. […] After spraying, the plants were placed in the greenhouse for 8 days, then the plant lengths were measured. […]
From the plant lengths in each of the treated plants and the non-treated plants, the relative length of the compositions was determined according to the above “Formula 2”.

Structure (SMILES): N#CC(CCc1ccc(Cl)cc1)(Cn1cncn1)c1ccccc1 (stereo not shown) [fenbuconazole]
- Effect of addition of oil adjuvants on retardation of corn plant (corn (variety: Pioneer) [1]; oil adjuvants 1.25 or 10% by volume): severely enhanced the retardation
- Retardation of corn plant without adjuvant (corn (variety: Pioneer) [1]; without adjuvant): retarded corn plant slightly
- Effect of addition of oil adjuvants on corn plant length (corn (variety: Pioneer) [2]; oil adjuvants 10% by volume): enhanced the retardation
- Effect on plant length without adjuvant (corn (variety: Pioneer) [2]; without adjuvant): did not effect on plant length
